Data as given in ChEMBL document CHEMBL3045224, “New insecticidal compounds, communesins C, D and E, from Penicillium expansum link MK-57” (2004).

What follows are compounds tested on Bombyx mori (assay: Insecticidal activity against po dosed third-instar larvae of Bombyx mori assessed as gram of diet).
Type: functional

Compared with `CC(=O)N1CC[C@@]23c4ccccc4N[C@@H]4N(C)c5cccc6c5[C@@]42CCN([C@@H]13)[C@@H]6[C@H]1OC1(C)C` [COMMUNESIN A], `C/C=C/C=C/C(=O)N1CC[C@@]23c4ccccc4N[C@@H]4N(C)c5cccc6c5[C@@]42CCN([C@@H]13)[C@@H]6[C@H]1OC1(C)C` [COMMUNESIN B] is 30-fold lower in LD50: 150 mg/kg for the first, 5 mg/kg for the second.

First: C/C=C/C=C/C(=O)N1CC[C@@]23c4ccccc4N[C@@H]4Nc5cccc6c5[C@@]42CCN([C@@H]13)[C@@H]6[C@H]1OC1(C)C [COMMUNESIN C]
Second: C/C=C/C=C/C(=O)N1CC[C@@]23c4ccccc4N[C@@H]4N(C=O)c5cccc6c5[C@@]42CCN([C@@H]13)[C@@H]6[C@H]1OC1(C)C [COMMUNESIN D]
The LD50 of the first is 3.8-fold higher: 300 mg/kg for the first, 80 mg/kg for the second.

For `CC(=O)N1CC[C@@]23c4ccccc4N[C@@H]4N(C)c5cccc6c5[C@@]42CCN([C@@H]6C=C(C)C)[C@@H]13` [COMMUNESIN E], the LD50 was 80 mg/kg.
